Data: patent US6841661B2, “Glycopeptide antibacterial compounds, compositions containing same and methods of using same” (Princeton Univerisity, priority 1999, dated 2005)

Tests used:
[1] = tested on: E. faecium CL 4931 (VanA); experiment: microbe, parasite or virus in culture; type: cell-based; parameters: CL4931 (in vitro testing): unit not given here; conditions: Tables 7 and 8; unit not given
From the text: (§1) National Committee for Clinical Laboratory Standards (NCCLS) guidelines [Methods for Dilution Antimicrobial Susceptibility Tests for Bacteria that Grow Aerobically-Fourth Edition; Approved Standard (NCCLS Document M7-A4, January 1997)] are used to establish the assay, although variations are made to optimize the published method according to the specific needs of the present investigation.
(§2) The test panel currently includes eight enterococci and 13 staphylococci, which are selected based upon their antibiotic susceptibility profiles. The methicillin-sensitive Staphylococcus aureus (MSSA) strain MB2985 (Smith isolate) is used to assesses the potential for serum protein binding of the compounds. The paired Gram-negative strains ASP #49 (envA-) and ASP #50 (envA+) (M. Salvatore/N. Lee) are included to judge membrane effects. Table 3 presents a detailed description of the strains included in the panel, including some of the sources of the strains of bacteria.
(§3) The glycopeptide antibiotic teicoplanin is included whenever possible.
(§4) TSB, containing 10% HS* for vancomycin intermediate S. aurcus/methicillin-resistant S. aureus (VISA/MRSA) strains, is inoculated from an appropriate source (frozen broth or agar slant) and grown approximately 17 hr at 35° C. with shaking at 220 rpm. Cultures are grown in tubes with a volume of 5 ml for enterococci and 2 ml for all other strains.
(§5) Four milliliter (4 ml) overnight culture is added to 36 ml physiological saline to obtain tenfold dilutions (enterococci). Overnight culture (0.4 ml) is added to 39.6 ml saline to obtain 100-fold dilutions (all strains except enterococci). Diluted cultures are maintained on ice until time of inoculation of test plates.
(§6) The number of CFU/mL is determined on BHI agar plates, although this is not done routinely because titers of overnight cultures are relatively constant. The test media include: • BHI for enterococci and VISA/MRSA; • MH II (i.e., cation-adjusted Mueller-Hinton broth) for MRS, MSS and E. coli.; • MH II+HSA for MSSA is prepared as follows: • a. 2×MHII+86mg/ml HSA • b. Dissolve 4.3 g HSA in 50 ml autoclaved 2x MH II. • c. pH to 7.0 by adding 2M MOPS, sodium. • d. Filter sterilize using 0.22 μm Coming cellulose acetate filter, used because of reported low protein binding. • e. 1×MH II+43 mg/ml HSA • f. Dilute the 2×medium twofold and filter as above. 5.8.6. Preparation of Test Plates
(§7) Using a Denley liquid handling system (or similar automatic device), 100 μ1×medium is added to each well in columns 2-12 of a 96-well microtiter dish. Using a multichannel pipettor, 100 μl 2×medium is added to each well in column 1. Plates may be filled on the day prior to assay, wrapped in plastic bags and refrigerated.
(§8) Vancomycin, Schering 29482, and teicoplanin are prepared on a weight per volume basis using 10 mM 3-(N-morpholino)propane-sulfonic acid (MOPS) buffer pH 7. Test compounds are received in solution in appropriate solvent (typically as 1 mg/ml in DMSO) or are dissolved in appropriate solvent prior to further dilution in 10 mM MOPS buffer, ph7. Consistent with NCCLS guidelines, antibiotics are handled aseptically but are not otherwise sterilized.
(§9) 100 μl appropriately diluted antibiotic solution is added to the first well of the designated row of the 96-well microtiter dish and serially diluted by twofold across the row using the Denley liquid handling system. With the aid of a Dynatech NEC 2000 inoculator, each well of the microtiter dish is inoculated with 1.5 μl diluted overnight culture, yielding approximately 1-5×10^6 CFU/ml for enterococci and approximately 3-7×10^5 CFU/ml for all other strains. Dishes are placed in stacks of no more than five, wrapped in plastic bags and incubated at 35° C. • Indication of result(s) type (% INH, IC50, Zone size, etc.) • MIC=minimum inhibitory concentration ps 5.8.9. Interpretation of the Results on the Basis of Activity […]

[2] = tested on: E. faecium CL 5053 (VanA); experiment: microbe, parasite or virus in culture; type: cell-based; parameters: CL5053 (in vitro testing): unit not given here; conditions: Tables 7 and 8; unit not given
From the text: as §1, §2, §3, §4, §5, §6, §7, §8, §9

[3] = tested on: E. faecium CL 5242 (VanA); experiment: microbe, parasite or virus in culture; type: cell-based; parameters: CL5242 (in vitro testing): unit not given here; conditions: Tables 7 and 8; unit not given
From the text: as §1, §2, §3, §4, §5, §6, §7, §8, §9

[4] = tested on: E. faecalis CL 4877 (VanB); experiment: microbe, parasite or virus in culture; type: cell-based; parameters: CL4877 (in vitro testing): unit not given here; conditions: Tables 7 and 8; unit not given
From the text: as §1, §2, §3, §4, §5, §6, §7, §8, §9

[5] = tested on: CL 4931, CL 5053, CL 5242 and CL 4877; type: cell-based, E. faecium, E. faecalis; parameters: unit not given here; conditions: mean of CL4931, CL5053, CL5242, CL4877; unit not given
From the text: as §1, §2, §3, §4, §5, §6, §7, §8, §9

| SMILES | CL4931 (in vitro testing) [1] | CL5053 (in vitro testing) [2] | CL5242 (in vitro testing) [3] | CL4877 (in vitro testing) [4] | Mean [5] |
| --- | --- | --- | --- | --- | --- |
| CNC(CC(C)C)C(=O)NC1C(=O)NC(CC(N)=O)C(=O)NC2C(=O)NC3C(=O)NC(C(=O)NC(C(=O)O)c4cc(O)cc(O)c4-c4cc3ccc4O)C(O)c3ccc(c(Cl)c3)Oc3cc2cc(c3OC2OC(CNCc3ccc(N)cc3)C(O)C(O)C2OC2CC(C)(NCc3ccc(OCc4ccc(Cl)c(Cl)c4)cc3)C(O)C(C)O2)Oc2ccc(cc2Cl)C1O (stereo not drawn) [Compound 133] | 2 | 2 | 0.5 | 0.03 | 1.1 |
| CNC(CC(C)C)C(=O)NC1C(=O)NC(CC(N)=O)C(=O)NC2C(=O)NC3C(=O)NC(C(=O)NC(C(=O)O)c4cc(O)cc(O)c4-c4cc3ccc4O)C(O)c3ccc(c(Cl)c3)Oc3cc2cc(c3OC2OC(CNCc3ccccc3)C(O)C(O)C2OC2CC(C)(NCc3ccc(OCc4ccc(Cl)c(Cl)c4)cc3)C(O)C(C)O2)Oc2ccc(cc2Cl)C1O (stereo not drawn) [Compound 134] | 2 | 4 | 1 | 0.25 | 1.8 |
| CNC(CC(C)C)C(=O)NC1C(=O)NC(CC(N)=O)C(=O)NC2C(=O)NC3C(=O)NC(C(=O)NC(C(=O)O)c4cc(O)cc(O)c4-c4cc3ccc4O)C(O)c3ccc(c(Cl)c3)Oc3cc2cc(c3OC2OC(CNCCc3ccc(N)cc3)C(O)C(O)C2OC2CC(C)(NCc3ccc(OCc4ccc(Cl)c(Cl)c4)cc3)C(O)C(C)O2)Oc2ccc(cc2Cl)C1O (stereo not drawn) [Compound 135] | 4 | 4 | 1 | 0.06 | 2.3 |
| CNC(CC(C)C)C(=O)NC1C(=O)NC(CC(N)=O)C(=O)NC2C(=O)NC3C(=O)NC(C(=O)NC(C(=O)O)c4cc(O)cc(O)c4-c4cc3ccc4O)C(O)c3ccc(c(Cl)c3)Oc3cc2cc(c3OC2OC(CNCc3ccc(F)cc3)C(O)C(O)C2OC2CC(C)(NCc3ccc(OCc4ccc(Cl)c(Cl)c4)cc3)C(O)C(C)O2)Oc2ccc(cc2Cl)C1O (stereo not drawn) [Compound 136] | 4 | 4 | 1 | 0.12 | 2.3 |
| CNC(CC(C)C)C(=O)NC1C(=O)NC(CC(N)=O)C(=O)NC2C(=O)NC3C(=O)NC(C(=O)NC(C(=O)O)c4cc(O)cc(O)c4-c4cc3ccc4O)C(O)c3ccc(c(Cl)c3)Oc3cc2cc(c3OC2OC(CNCc3cccc(Cl)c3)C(O)C(O)C2OC2CC(C)(NCc3ccc(OCc4ccc(Cl)c(Cl)c4)cc3)C(O)C(C)O2)Oc2ccc(cc2Cl)C1O (stereo not drawn) [Compound 137] | 4 | 4 | 1 | 0.12 | 2.3 |
| CNC(CC(C)C)C(=O)NC1C(=O)NC(CC(N)=O)C(=O)NC2C(=O)NC3C(=O)NC(C(=O)NC(C(=O)O)c4cc(O)cc(O)c4-c4cc3ccc4O)C(O)c3ccc(c(Cl)c3)Oc3cc2cc(c3OC2OC(CNCc3ccc(OC)cc3)C(O)C(O)C2OC2CC(C)(NCc3ccc(OCc4ccc(Cl)c(Cl)c4)cc3)C(O)C(C)O2)Oc2ccc(cc2Cl)C1O (stereo not drawn) [Compound 138] | 8 | 4 | 1 | 0.5 | 3.4 |
| CNC(CC(C)C)C(=O)NC1C(=O)NC(CC(N)=O)C(=O)NC2C(=O)NC3C(=O)NC(C(=O)NC(C(=O)O)c4cc(O)cc(O)c4-c4cc3ccc4O)C(O)c3ccc(c(Cl)c3)Oc3cc2cc(c3OC2OC(CNCc3ccccc3N)C(O)C(O)C2OC2CC(C)(NCc3ccc(OCc4ccc(Cl)c(Cl)c4)cc3)C(O)C(C)O2)Oc2ccc(cc2Cl)C1O (stereo not drawn) [Compound 139] | 8 | 4 | 2 | 0.25 | 3.6 |
| CNC(CC(C)C)C(=O)NC1C(=O)NC(CC(N)=O)C(=O)NC2C(=O)NC3C(=O)NC(C(=O)NC(C(=O)O)c4cc(O)cc(O)c4-c4cc3ccc4O)C(O)c3ccc(c(Cl)c3)Oc3cc2cc(c3OC2OC(CNCC3CCCCN3)C(O)C(O)C2OC2CC(C)(NCc3ccc(OCc4ccc(Cl)c(Cl)c4)cc3)C(O)C(C)O2)Oc2ccc(cc2Cl)C1O (stereo not drawn) [Compound 140] | 4 | 8 | 2 | 0.5 | 3.6 |
| CNC(CC(C)C)C(=O)NC1C(=O)NC(CC(N)=O)C(=O)NC2C(=O)NC3C(=O)NC(C(=O)NC(C(=O)O)c4cc(O)cc(O)c4-c4cc3ccc4O)C(O)c3ccc(c(Cl)c3)Oc3cc2cc(c3OC2OC(CNCc3ccc(C)cc3)C(O)C(O)C2OC2CC(C)(NCc3ccc(OCc4ccc(Cl)c(Cl)c4)cc3)C(O)C(C)O2)Oc2ccc(cc2Cl)C1O (stereo not drawn) [Compound 141] | 4 | 8 | 2 | 1 | 3.8 |
| CNC(CC(C)C)C(=O)NC1C(=O)NC(CC(N)=O)C(=O)NC2C(=O)NC3C(=O)NC(C(=O)NC(C(=O)O)c4cc(O)cc(O)c4-c4cc3ccc4O)C(O)c3ccc(c(Cl)c3)Oc3cc2cc(c3OC2OC(CNCC3CCCO3)C(O)C(O)C2OC2CC(C)(NCc3ccc(OCc4ccc(Cl)c(Cl)c4)cc3)C(O)C(C)O2)Oc2ccc(cc2Cl)C1O (stereo not drawn) [Compound 142] | 4 | 8 | 2 | 2 | 4.0 |
| CNC(CC(C)C)C(=O)NC1C(=O)NC(CC(N)=O)C(=O)NC2C(=O)NC3C(=O)NC(C(=O)NC(C(=O)O)c4cc(O)cc(O)c4-c4cc3ccc4O)C(O)c3ccc(c(Cl)c3)Oc3cc2cc(c3OC2OC(CNCCc3ccccc3)C(O)C(O)C2OC2CC(C)(NCc3ccc(OCc4ccc(Cl)c(Cl)c4)cc3)C(O)C(C)O2)Oc2ccc(cc2Cl)C1O (stereo not drawn) [Compound 143] | 8 | 4 | 2 | 2 | 4.0 |
| CNC(CC(C)C)C(=O)NC1C(=O)NC(CC(N)=O)C(=O)NC2C(=O)NC3C(=O)NC(C(=O)NC(C(=O)O)c4cc(O)cc(O)c4-c4cc3ccc4O)C(O)c3ccc(c(Cl)c3)Oc3cc2cc(c3OC2OC(CNC3CCCC3)C(O)C(O)C2OC2CC(C)(NCc3ccc(OCc4ccc(Cl)c(Cl)c4)cc3)C(O)C(C)O2)Oc2ccc(cc2Cl)C1O (stereo not drawn) [Compound 144] | 4 | 8 | 2 | 2 | 4.0 |
